Patent US20160108381A1, “DNA POLYMERASES AND MUTANTS THEREOF” (LIFE TECHNOLOGIES CORPORATION, priority 2001, published 2016)

Molecular target: T1, Caldibacillus cellulovorans CompA.2 (CA2) DNA polymerase, SEQ ID NO:16 ([Caldibacillus] cellulovorans, UniProt Q6X9S0)
T1 sequence (Q6X9S0 with tags, fused parts or gaps): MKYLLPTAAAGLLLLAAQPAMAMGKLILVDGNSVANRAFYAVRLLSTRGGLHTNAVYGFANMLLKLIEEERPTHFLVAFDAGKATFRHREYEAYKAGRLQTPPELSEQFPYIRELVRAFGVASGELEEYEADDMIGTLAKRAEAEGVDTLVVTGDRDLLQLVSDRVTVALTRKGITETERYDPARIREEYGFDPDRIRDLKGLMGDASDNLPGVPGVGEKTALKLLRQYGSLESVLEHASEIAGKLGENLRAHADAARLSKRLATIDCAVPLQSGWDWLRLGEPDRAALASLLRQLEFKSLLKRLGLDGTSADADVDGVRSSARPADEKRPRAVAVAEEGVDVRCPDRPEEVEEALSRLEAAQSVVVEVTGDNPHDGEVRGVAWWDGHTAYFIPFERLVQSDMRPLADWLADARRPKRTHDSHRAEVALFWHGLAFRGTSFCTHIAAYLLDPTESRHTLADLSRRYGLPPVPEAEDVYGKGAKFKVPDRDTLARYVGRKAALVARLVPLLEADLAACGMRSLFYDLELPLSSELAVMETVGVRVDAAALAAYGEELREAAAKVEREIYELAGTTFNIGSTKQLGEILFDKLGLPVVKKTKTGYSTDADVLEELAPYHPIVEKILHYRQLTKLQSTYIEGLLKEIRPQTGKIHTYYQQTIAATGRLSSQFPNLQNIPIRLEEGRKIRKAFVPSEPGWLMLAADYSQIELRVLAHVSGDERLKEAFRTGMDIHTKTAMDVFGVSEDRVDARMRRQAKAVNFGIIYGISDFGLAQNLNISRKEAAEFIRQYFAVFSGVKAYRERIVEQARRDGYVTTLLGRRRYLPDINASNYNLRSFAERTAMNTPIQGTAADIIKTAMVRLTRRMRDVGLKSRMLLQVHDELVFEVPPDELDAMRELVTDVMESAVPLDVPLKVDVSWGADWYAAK
Test: Steady-state kinetics, DNA- and RNA-dependent polymerase activity
Type: biochemical
Protocol: Purification of CA2, B.EA1, Rt41A, Dth, Tok13B, Tok7B, and Rt69B DNA polymerase. E. coli cells (BL21SI, Invitrogen Corporation, Carlsbad, Calif.) bearing the plasmid pET26B with the gene for CA2, B.EA1, Rt41A, or Dth DNA polymerase were grown in 2.8-1 Fembach flasks in LB broth containing no salt and 50 μg/ml kanamycin at 37° C. After the culture reached an A590 of 1.2, expression of DNA polymerase was induced with 0.3 M NaCl for 3 hr. Cells were harvested by centrifugation and stored at −70° C. E. coli cells (BL21AI) bearing the plasmid pET14B with the gene for Tok13B, Tok7B, or RT69B DNA polymerase were grown in 2.8-1 Fembach flasks in LB broth containing 50 μg/ml ampicillin at 37° C. After the culture reached an A590 of 1.0, expression of DNA polymerase was induced by the addition of 0.2% arabinose for 3 hr. Cells were harvested by centrifugation and stored at −70° C.
Steady-state kinetic measurements.
The catalytic rate constant kcat and the Michaelis constant KM were determined for both the DNA-dependent and RNA-dependent polymerase activities for the polypeptides of the invention and these parameters were compared to those of Tne DNA polymerase enzyme and […]™ II reverse transcriptase. […]

For `Cc1cn([C@H]2C[C@H](O)[C@@H](COP(=O)(O)OP(=O)(O)OP(=O)(O)O)O2)c(=O)[nH]c1=O` [dTTP], the “Kcat RNA (dTTP)” value (Table 34, RNA template, 2 mM MgCl2, 45 °C per footnote) was 5 s⁻¹, the “kCAT Ratio (RNA/DNA)” value (Table 40, dTTP, 55 °C) was 0.59 and the Km (read-out: Km RNA (dTTP), Table 34, RNA template, 2 mM MgCl2, 45 °C per footnote) was 17 µM.
